Measurements reported in patent US7449477B2, “7-phenyl-isoquinoline-5-sulfonylamino derivatives as inhibitors of akt (protein kinase B)” (Eli Lilly and Company, priority 2003, dated 2008).
Where a name gives a salt, the structure may show the parent alone.

Each molecule was assayed against T1, active human Akt1 (Homo sapiens, UniProt P31749) (assay: Akt1 Phosphorylation Assay (phosphocellulose filter-binding, 33P-Crosstide)). Conditions: active human recombinant Akt1 (full-length) 10 nM; 12.5 μM Crosstide; 20 μM ATP; 30 minutes at room temperature.
T1 construct: Active human recombinant Akt1 (full-length) purified from Sf9 insect cells; purchased Upstate Biotechnology, Inc. 14-276; host or cells: Sf9 insect cells
Assay type: biochemical
Protocol: Akt1 Phosphorylation Assay
The assay described measures the phosphorylation of Crosstide by active human Akt1 and other Akt isoforms. Crosstide contains a consensus sequence derived from Akt substrates GSK3b and forkhead transcription factors (FKs). The ^33P-labeled Crosstide substrate is captured by phosphocellulose membrane filter plates.
Active human recombinant Akt1 (full-length) purified from Sf9 insect cells is from Upstate Biotechnology, Inc. (Cat. #14-276, 405 μg/ml). Crosstide substrate, NH2-GRPRTSSFAEG-COOH (M.W.1164) is purchased from Multiple Peptide System (Cat. # L59/GR145-153).
Solution (A): 20% DMSO (dimethylsulphoxide) or Compound in 20% DMSO; Solution (B): Assay Buffer Mix: 31.25 μM Crosstide, 37.5 mM MgCl2, 87.5 mM HEPES, pH 7.3, 50 μM ATP γ-^33P-ATP, 0.05 μCi/μl; Solution (C): Akt Kinase Mix: 31.25 mM HEPES, pH 7.3; 1 mM DTT, 25 nM UBI Akt1.
Procedure for Phosphocellulose Filter-Binding Assay
Ten μl of Solution (A) are first mixed with 20 μl Solution (B). The enzymatic reaction is initiated by adding 20 μl Solution (C) to the mixture. (Final concentration or amount in a 50-μl reaction mix: 4% DMSO or various compound concentration in 4% DMSO; 12.5 μM Crosstide; 15 mM MgCl2; 35 mM HEPES, pH7.3; 20 μM ATP; 1 μCi γ-^33P-ATP; 0.4 mM DTT; 10 nM UBI Akt1.) The reactions are performed in 96-well microtiter plates.
After 30 minutes at room temperature, the reaction is terminated by adding 80 μl of 10% H3PO4. An aliquot of 100 μl from each well is transferred to the phosphocellulose filter plate (Millipore MultiScreen, Catalog #MAPHN0B50). After 30 minutes, the reaction mix is filtered with a Millipore manifold following by 3 washes with 0.5% H3PO4. The filter is then vacuum-dried and the plate is fitted onto a Packard carrier. 100 μl/well Microscint20 are added and the contents are counted in a Packard Top Count.

T1 sequence (P31749 whole entry): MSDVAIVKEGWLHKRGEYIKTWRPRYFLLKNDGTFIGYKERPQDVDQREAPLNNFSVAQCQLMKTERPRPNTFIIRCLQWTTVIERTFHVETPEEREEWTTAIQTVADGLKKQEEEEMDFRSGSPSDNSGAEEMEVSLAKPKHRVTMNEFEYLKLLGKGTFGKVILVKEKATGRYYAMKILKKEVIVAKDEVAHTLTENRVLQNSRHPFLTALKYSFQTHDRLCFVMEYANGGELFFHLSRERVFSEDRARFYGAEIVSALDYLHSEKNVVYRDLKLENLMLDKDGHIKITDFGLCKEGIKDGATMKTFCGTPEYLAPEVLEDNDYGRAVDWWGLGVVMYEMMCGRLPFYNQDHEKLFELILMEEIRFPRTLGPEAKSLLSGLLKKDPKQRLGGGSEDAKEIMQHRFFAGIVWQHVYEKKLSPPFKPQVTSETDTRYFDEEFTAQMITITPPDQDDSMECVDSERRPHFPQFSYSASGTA

IC50, ≤ 2 µM:
CN1CCN(c2cc(Cl)ccc2CCCNCCNS(=O)(=O)c2cc(-c3ccccc3)cc3cnccc23)CC1 [Example 49, 7-Phenyl-isoquinoline-5-sulfonic acid {2-[3-(4-chloro-2-(4-methyl-piperazin-1-yl)-phenyl)-propylamino]-ethyl}-amide, tetrahydrochloride salt]
O=S1(=O)CCN(c2cc(Cl)ccc2CCCNCCNS(=O)(=O)c2cc(-c3ccccc3)cc3cnccc23)CC1 [Example 52, 7-Phenyl-isoquinoline-5-sulfonic acid {2-[3-(4-chloro-2-(1,1-dioxo-thiomorpholin-4-yl)-phenyl)-propylamino]-ethyl}-amide, trihydrochloride salt]
O=S(=O)(NCCNCCCc1ccc(Cl)cc1C1CCNCC1)c1cc(-c2ccccc2)cc2cnccc12 [Example 53, 7-Phenyl-isoquinoline-5-sulfonic acid {2-[3-(4-chloro-2-(piperidin-4-yl)-phenyl)-propylamino]-ethyl}-amide, trihydrochloride salt]
CC1CN(c2cc(Cl)ccc2CCCNCCNS(=O)(=O)c2cc(-c3ccccc3)cc3cnccc23)CCN1 (centres unmarked) [Example 54, 7-Phenyl-isoquinoline-5-sulfonic acid {2-[3-(4-chloro-2-(3-methyl-piperazin-1-yl)-phenyl)-propylamino]-ethyl}-amide, tetrahydrochloride salt]
CN1CCC(Oc2cc(Cl)ccc2CCCNCCNS(=O)(=O)c2cc(-c3ccccc3)cc3cnccc23)C1 (centres unmarked) [Example 55, 7-Phenyl-isoquinoline-5-sulfonic acid {2-[3-(4-chloro-2-(1-methyl-pyrrolidin-3-yl)oxy-phenyl)-propylamino]-ethyl}-amide, trihydrochloride salt]
O=S(=O)(NCCNCCCc1ccc(Cl)cc1OC1CCNC1)c1cc(-c2ccccc2)cc2cnccc12 (centres unmarked) [Example 56, 7-Phenyl-isoquinoline-5-sulfonic acid {2-[3-(4-chloro-2-(pyrrolidin-3-yl)oxy-phenyl)-propylamino]-ethyl}-amide, trihydrochloride salt]
O=[N+]([O-])c1ccc(CCCNCCNS(=O)(=O)c2cc(-c3ccccc3)cc3cnccc23)c(CCO)c1 [Example 58, 7-Phenyl-isoquinoline-5-sulfonic acid {2-[3-(2-(2-hydroxy-ethyl)-4-nitro-phenyl)-propylamino]-ethyl}-amide, dihydrochloride salt]
CN(C)CCOc1cc(Cl)ccc1CCCNCCNS(=O)(=O)c1cc(-c2ccccc2)cc2cnccc12 [Example 59, 7-Phenyl-isoquinoline-5-sulfonic acid {2-[3-(4-chloro-2-(2-dimethylamino-ethoxy)-phenyl)-propylamino]-ethyl}-amide, dihydrochloride salt]
COC(=O)c1cc([N+](=O)[O-])ccc1CCCNCCNS(=O)(=O)c1cc(-c2ccccc2)cc2cnccc12 [Example 62, 7-Phenyl-isoquinoline-5-sulfonic acid {2-[3-(2-methoxycarbonyl-4-nitrophenyl)-propylamino]-ethyl}-amide, dihydrochloride salt]
COc1cc([N+](=O)[O-])ccc1CCCNCCNS(=O)(=O)c1cc(-c2ccccc2)cc2cnccc12 [Example 63, 7-Phenyl-isoquinoline-5-sulfonic acid {2-[3-(2-methoxy-4-nitrophenyl)-propylamino]-ethyl}-amide, dihydrochloride salt]
O=C(O)c1cc([N+](=O)[O-])ccc1CCCNCCNS(=O)(=O)c1cc(-c2ccccc2)cc2cnccc12 [Example 64, 7-Phenyl-isoquinoline-5-sulfonic acid {2-[3-(2-carboxy-4-nitrophenyl)-propylamino]-ethyl}-amide, dihydrochloride salt]
O=S(=O)(NCCNCCCc1ccc(Cl)cc1Cl)c1cc(-c2ccccc2)cc2cnccc12 [Example 65, 7-Phenyl-isoquinoline-5-sulfonic acid {2-[3-(2,4-dichlorophenyl)-propylamino]-ethyl}-amide, dihydrochloride salt]
O=S(=O)(NCCNCCCc1cccc(Cl)c1Cl)c1cc(-c2ccccc2)cc2cnccc12 [Example 66, 7-Phenyl-isoquinoline-5-sulfonic acid {2-[3-(2,3-dichlorophenyl)-propylamino]-ethyl}-amide, dihydrochloride salt]
N#Cc1ccc(CCCNCCNS(=O)(=O)c2cc(-c3ccccc3)cc3cnccc23)cc1C(F)(F)F [Example 67, 7-Phenyl-isoquinoline-5-sulfonic acid {2-[3-(4-cyano-3-trifluoromethylphenyl)-propylamino]-ethyl}-amide, dihydrochloride salt]
O=S(=O)(NCCNCCCc1cccc(F)c1F)c1cc(-c2ccccc2)cc2cnccc12 [Example 68, 7-Phenyl-isoquinoline-5-sulfonic acid {2-[3-(2,3-difluorophenyl)-propylamino]-ethyl}-amide, dihydrochloride salt]
O=S(=O)(NCCNCCCc1ccc(Cl)cc1OCCN1CCOCC1)c1cc(-c2ccccc2)cc2cnccc12 [Example 69, 7-Phenyl-isoquinoline-5-sulfonic acid (2-{3-[4-chloro-2-(2-morpholino-4-yl-ethoxy)-phenyl]-propylamino}-ethyl)-amide, dihydrochloride salt]
O=S(=O)(NCCNCCCc1ccc(F)cc1F)c1cc(-c2ccccc2)cc2cnccc12 [Example 70, 7-Phenyl-isoquinoline-5-sulfonic acid {2-[3-(2,4-difluorophenyl)-propylamino]-ethyl}-amide, dihydrochloride salt]
Nc1ccc(CCCNCCNS(=O)(=O)c2cc(-c3ccccc3)cc3cnccc23)cc1 [Example 72, 7-Phenyl-isoquinoline-5-sulfonic acid [2-(3-(4-aminophenyl)-propylamino)-ethyl]-amide, dihydrochloride salt]
O=[N+]([O-])c1ccc(C(O)CCNCCNS(=O)(=O)c2cc(-c3ccccc3)cc3cnccc23)cc1 (centres unmarked) [Example 73, 7-Phenyl-isoquinoline-5-sulfonic acid [2-(3-hydroxy-3-(4-nitrophenyl)-propylamino)-ethyl]-amide, dihydrochloride salt]
N#Cc1ccc(C(O)CCNCCNS(=O)(=O)c2cc(-c3ccccc3)cc3cnccc23)cc1 (centres unmarked) [Example 75, 7-Phenyl-isoquinoline-5-sulfonic acid [2-(3-hydroxy-3-(4-cyanophenyl)-propylamino)-ethyl]-amide, dihydrochloride salt]
O=[N+]([O-])c1cccc(C(O)CCNCCNS(=O)(=O)c2cc(-c3ccccc3)cc3cnccc23)c1 (centres unmarked) [Example 77, 7-Phenyl-isoquinoline-5-sulfonic acid [2-(3-hydroxy-3-(3-nitrophenyl)-propylamino)-ethyl]-amide, dihydrochloride salt]
CS(=O)(=O)c1ccc(C(O)CCNCCNS(=O)(=O)c2cc(-c3ccccc3)cc3cnccc23)cc1 (centres unmarked) [Example 79, 7-Phenyl-isoquinoline-5-sulfonic acid [2-(3-hydroxy-3-(4-methanesulfonyl-phenyl)-propylamino)-ethyl]-amide, dihydrochloride salt]
O=S(=O)(NCCNCCC(O)c1ccc(S(=O)(=O)C(F)(F)F)cc1)c1cc(-c2ccccc2)cc2cnccc12 (centres unmarked) [Example 80, 7-Phenyl-isoquinoline-5-sulfonic acid [2-(3-hydroxy-3-(4-trifuoromethanesulfonyl-phenyl)-propylamino)-ethyl]-amide, dihydrochloride salt]
O=[N+]([O-])c1ccc([C@H](O)CCNCCNS(=O)(=O)c2cc(-c3ccccc3)cc3cnccc23)cc1 [Example 81, (R)-7-Phenyl-isoquinoline-5-sulfonic acid [2-(3-hydroxy-3-(4-nitrophenyl)-propylamino)-ethyl]-amide, mesylate salt]
O=[N+]([O-])c1ccc([C@@H](O)CCNCCNS(=O)(=O)c2cc(-c3ccccc3)cc3cnccc23)cc1 [Example 82, (S)-7-Phenyl-isoquinoline-5-sulfonic acid [2-(3-hydroxy-3-(4-nitrophenyl)-propylamino)-ethyl]-amide, mesylate salt]
O=[N+]([O-])c1ccc(C(O)C(O)CNCCNS(=O)(=O)c2cc(-c3ccccc3)cc3cnccc23)cc1 (centres unmarked) [Example 87, 7-Phenyl-isoquinoline-5-sulfonic acid [2-(2,3-dihydroxy-3-(4-nitrophenyl)-propylamino)-ethyl]-amide, dihydrochloride salt]
